This note sets out measurements from patent US9440950B2, “Arginine methyltransferase inhibitors and uses thereof” (Epizyme, Inc., priority 2013, dated 2016).

The target of the assay is T1, Human CARM1 (PRMT4) (Homo sapiens, UniProt Q86X55).
T1 construct: Flag-CARM1-His; made in house; host or cells: HEK 293F cells (BacMam virus, pFastBacMam)
T1 sequence (Q86X55 1-585 isoform Q86X55-1): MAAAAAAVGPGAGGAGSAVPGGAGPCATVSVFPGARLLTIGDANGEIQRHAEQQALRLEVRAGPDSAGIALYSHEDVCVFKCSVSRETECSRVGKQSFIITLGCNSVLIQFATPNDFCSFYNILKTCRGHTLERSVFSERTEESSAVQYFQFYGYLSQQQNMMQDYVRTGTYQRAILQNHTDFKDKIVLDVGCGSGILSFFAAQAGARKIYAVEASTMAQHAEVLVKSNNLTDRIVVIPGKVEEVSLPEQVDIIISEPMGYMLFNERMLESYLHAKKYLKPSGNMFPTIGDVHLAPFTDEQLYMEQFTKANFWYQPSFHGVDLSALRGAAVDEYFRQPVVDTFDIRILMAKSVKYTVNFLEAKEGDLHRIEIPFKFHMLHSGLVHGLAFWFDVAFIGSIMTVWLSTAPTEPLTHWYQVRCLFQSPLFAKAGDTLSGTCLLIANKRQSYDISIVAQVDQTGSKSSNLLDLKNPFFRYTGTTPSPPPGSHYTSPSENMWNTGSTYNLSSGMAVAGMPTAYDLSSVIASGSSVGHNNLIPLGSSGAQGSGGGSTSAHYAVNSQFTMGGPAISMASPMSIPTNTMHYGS
As to the kind of experiment: CARM1 Biochemical Assay. The settings on record: peptide substrate, 3H-SAM Flashplate assay. An excerpt: S-adenosylmethionine (SAM), S-adenosylhomocysteine (SAH), bicine, Tween20, dimethylsulfoxide (DMSO), bovine skin gelatin (BSG), sodium butyrate and Tris(2-carboxyethyl)phosphine hydrochloride solution (TCEP) were purchased from Sigma-Aldrich at the highest level of purity possible. ^3H-SAM was purchase from American Radiolabeled Chemicals with a specific activity of 80 Ci/mmol. 384-well streptavidin Flashplates were purchased from PerkinElmer.
Peptide representative of human histone H3 residues 16-30 was synthesized with an N-terminal linker-affinity tag motif and a C-terminal amide cap by 21st Century Biochemicals. The peptide was purified by high-performance liquid chromatography (HPLC) to greater than 95% purity and confirmed by liquid chromatography mass spectrometry (LC-MS). The sequence was Biot-Ahx-[…]-amide and contained a monomethylated arginine at position 26 (SEQ ID NO.:14).
Human CARM1 (PRMT4) (NM_199141.1) transcript clone was amplified from an HEK 293 cDNA library, incorporating a flanking 5′ sequence encoding a FLAG tag ([…]) (SEQ ID NO.:6) fused directly to Ala 2 of CARM1 and 3′ sequence encoding a hexa His sequence ([…]) (SEQ ID NO.:15) fused directly to Ser 608. The gene sequence encoding isoform1 containing a deletion of amino acids 539-561 was amplified subsequently and subcloned into pFastBacMam (Viva Biotech).
Recombinant baculovirus were generated according to Bac-to-Bac kit instructions (Life Technologies). […] Infections were carried out at 37° C. for 48 hours, harvested by centrifugation, and stored at −80° C. for purification.
Column was washed with 500 mM NaCl in buffer A and Flag-CARM1-His was eluted with 200 ug/ml FLAG peptide in buffer A. Pooled fractions were dialyzed in 20 mM Tris, 150 mM NaCl, 5% glycerol and 1 mM DTT, pH 7.8. The purity of recovered protein was 94.
General Procedure for CARM1 Enzyme Assays on Peptide Substrates.
The assays were all performed in a buffer consisting of 20 mM Bicine (pH=7.6), 1 mM TCEP, 0.005% BSG, and 0.002% Tween 20, prepared on the day of use. Compounds in 100% DMSO (1 ul) were spotted into a polypropylene 384-well V-bottom plates (Greiner) using a Platemate Plus outfitted with a 384-channel head (Thermo Scientific). DMSO (1 ul) was added to Columns 11, 12, 23, 24, rows A-H for the maximum signal control and 1 ul of SAH, a known product and inhibitor of CARM1, was added to columns 11, 12, 23, 24, rows I-P for the minimum signal control. A cocktail (40 ul) containing the CARM1 enzyme was added by Multidrop Combi (Thermo-Fisher). The compounds were allowed to incubate with CARM1 for 30 min at room temperature, then a cocktail (10 ul) containing ^3H-SAM and peptide was added to initiate the reaction (final volume=51 ul). The final concentrations of the components were as follows: CARM1 was 0.25 nM, ^3H-SAM was 30 nM, peptide was 250 nM, SAH in the minimum signal control wells was 1 mM, and the DMSO concentration was 2%. The assays were stopped by the addition of non-radiolabeled SAM (10 ul) to a final concentration of 300 uM, which dilutes the ^3H-SAM to a level where its incorporation into the peptide substrate is no longer detectable. 50 ul of the reaction in the 384-well polypropylene plate was then transferred to a 384-well Flashplate and the biotinylated peptides were allowed to bind to the streptavidin surface for at least 1 hour before being washed once with 0.1% Tween20 in a Biotek ELx405 plate washer. The plates were then read in a PerkinElmer TopCount plate reader to measure the quantity of ^3H-labeled peptide bound to the Flashplate surface, measured as disintegrations per minute (dpm) or alternatively, referred to as counts per minute (cpm).
Where dpm=disintegrations per minute, cmpd=signal in assay well, and min and max are the respective minimum and maximum signal controls.
Where top and bottom are the normally allowed to float, but may be fixed at 100 or 0 respectively in a 3-parameter fit. […]

The structures appear in SMILES notation. Bounds are passed on as bounds.

In general, IC50 refers to the concentration that gives 50% inhibition. Low readings indicate greater potency in that assay, high ones weaker potency in that assay. In the case of `CN(CCN)Cc1c[nH]nc1-c1cncc(S(C)(=O)=O)c1` [Compound 4], the IC50 is ≥ 10 µM.

In the case of `Cc1cncc(-c2n[nH]cc2CN(C)CCN)c1` [Compound 6], the IC50 was ≥ 10 µM.

`CN(CCN)Cc1c[nH]nc1-c1cncc(F)c1` [Compound 7] showed an IC50 of 1.01 to 3 µM. To `Cc1cc(-c2n[nH]cc2CN(C)CCN)cnc1Cl` [Compound 10] belongs 0.101 to 1 µM; to `COc1ccc(-c2n[nH]cc2CN(C)CCN)cn1` [Compound 5], 3.01 to 10 µM; to `CNCCN(C)Cc1c[nH]nc1-c1cccnc1` [Compound 1], 1.01 to 3 µM. In turn, `CNCCN(C)Cc1c[nH]nc1-c1ccc(N)nc1` [Compound 3] registered an IC50 of 3.01 to 10 µM. Molecule `CN(CCN)Cc1c[nH]nc1-c1cccnc1` [Compound 8] gave an IC50 of 3.01 to 10 µM. Under `CNCCN(C)Cc1c[nH]nc1-c1ccc(O)nc1` [Compound 2] stands ≥ 10 µM; under `CN(CCN)Cc1c[nH]nc1-c1ccncc1` [Compound 9], 3.01 to 10 µM.
